This is an account of results in patent publication EP0545195B1, “Indolopyrrolocarbazole derivatives” (BANYU PHARMACEUTICAL CO., LTD., priority 1991, dated 1993).

The test system of the first test is mouse leukemia cell P388. Kind of test: Proliferation inhibition activity against mouse leukemia cell (Thiazoyl Blue assay). It is filed as cell-based. Particulars: P388 cells, 24 hours culture with test compound, absorbance at 550 nm, read-out: 50% inhibitory concentration (IC₅₀). The protocol: (2) Proliferation inhibition activity against mouse leukemia cell
100 µl portions of a cell culturing medium (10% fetal bovine serum-containing-RPMI-1640 medium) containing 3x10³ mouse leukemia cell (P388) were put in a 96-hole microplate, the cells were cultured under 5% CO₂ at 37°C for 24 hours, 10 µl each of test solutions containing test compounds respectively were added respectively, and the cells were further cultured under 5% CO₂ at 37°C for 24 hours. 10 µl portions of 0.5% Thiazoyl Blue were added to the culture broths, and incubation was carried out under 5% CO₂ at 37°C for 2 hours to carry out enzymatic reaction. 20% sodium dodecyl sulfate (SDS) was added to discontinue the reaction, incubation was further carried out at 37°C for 4 hours to dissolve the formed dye, and absorbance at 550 nm was measured and compared with the control group.
Consider `NN1C(=O)c2c(c3c4cccc(O)c4n([C@@H]4O[C@H](CO)[C@@H](O)[C@H](O)[C@H]4O)c3c3[nH]c4c(O)cccc4c23)C1=O` [Example 1], for which the IC50 is less than 30 nM.
Regarding `O=C(O)C=NN1C(=O)c2c(c3c4cccc(O)c4n([C@@H]4O[C@H](CO)[C@@H](O)[C@H](O)[C@H]4O)c3c3[nH]c4c(O)cccc4c23)C1=O` [Example 2], the IC50 came out at 290 nM.
The same measure, in the same setting: under `O=C(O)CCC=NN1C(=O)c2c(c3c4cccc(O)c4n([C@@H]4O[C@H](CO)[C@@H](O)[C@H](O)[C@H]4O)c3c3[nH]c4c(O)cccc4c23)C1=O` [Example 3] stands 65 nM; under `CO[C@H]1[C@H](O)[C@@H](O)[C@H](n2c3c(Cl)cccc3c3c4c(c5c6cccc(Cl)c6[nH]c5c32)C(=O)N(N)C4=O)O[C@@H]1CO` [Example 4, 6-N-aminorebeccamycin], 96 nM; under `O=CNN1C(=O)c2c(c3c4cccc(O)c4n([C@@H]4O[C@H](CO)[C@@H](O)[C@H](O)[C@H]4O)c3c3[nH]c4c(O)cccc4c23)C1=O` [Example 5], 280 nM.
As for `CC(=O)NN1C(=O)c2c(c3c4cccc(O)c4n([C@@H]4O[C@H](CO)[C@@H](O)[C@H](O)[C@H]4O)c3c3[nH]c4c(O)cccc4c23)C1=O` [Example 6], the IC50 came out at 59 nM.
As for `CNN1C(=O)c2c(c3c4cccc(O)c4n([C@@H]4O[C@H](CO)[C@@H](O)[C@H](O)[C@H]4O)c3c3[nH]c4c(O)cccc4c23)C1=O` [Example 7], the IC50 came out at 91 nM.
On to `O=C(O)CNN1C(=O)c2c(c3c4cccc(O)c4n([C@@H]4O[C@H](CO)[C@@H](O)[C@H](O)[C@H]4O)c3c3[nH]c4c(O)cccc4c23)C1=O` [Example 8], for which the IC50 is 300 nM.
As to `NC(=O)NN1C(=O)c2c(c3c4cccc(O)c4n([C@@H]4O[C@H](CO)[C@@H](O)[C@H](O)[C@H]4O)c3c3[nH]c4c(O)cccc4c23)C1=O` [Example 9], the IC50 amounted to 28 nM.
Turning to `NC(=S)NN1C(=O)c2c(c3c4cccc(O)c4n([C@@H]4O[C@H](CO)[C@@H](O)[C@H](O)[C@H]4O)c3c3[nH]c4c(O)cccc4c23)C1=O` [Example 10], the IC50 was found to be 460 nM.
In the case of `CS(=O)(=O)NN1C(=O)c2c(c3c4cccc(O)c4n([C@@H]4O[C@H](CO)[C@@H](O)[C@H](O)[C@H]4O)c3c3[nH]c4c(O)cccc4c23)C1=O` [Example 11], the IC50 was less than 26 nM.
`CCC(=O)NN1C(=O)c2c(c3c4cccc(O)c4n([C@@H]4O[C@H](CO)[C@@H](O)[C@H](O)[C@H]4O)c3c3[nH]c4c(O)cccc4c23)C1=O` [Example 12]: the IC50 amounted to 42 nM.
`O=C1c2c(c3c4cccc(O)c4n([C@@H]4O[C@H](CO)[C@@H](O)[C@H](O)[C@H]4O)c3c3[nH]c4c(O)cccc4c23)C(=O)N1NC(=O)C(F)(F)F` [Example 13]: the IC50 is 220 nM.
In the case of `NC(=O)CNN1C(=O)c2c(c3c4cccc(O)c4n([C@@H]4O[C@H](CO)[C@@H](O)[C@H](O)[C@H]4O)c3c3[nH]c4c(O)cccc4c23)C1=O` [Example 14], the IC50 was less than 27 nM.
For `O=C1c2c(c3c4cccc(O)c4n([C@@H]4O[C@H](CO)[C@@H](O)[C@H](O)[C@H]4O)c3c3[nH]c4c(O)cccc4c23)C(=O)N1Nc1ccccn1` [Example 15], the IC50 is 310 nM.
As for `NC(=O)C(=O)NN1C(=O)c2c(c3c4cccc(O)c4n([C@@H]4O[C@H](CO)[C@@H](O)[C@H](O)[C@H]4O)c3c3[nH]c4c(O)cccc4c23)C1=O` [Example 17], the IC50 was found to be 44 nM.
Same read-out and setting: the same measure for `NNC(=O)NN1C(=O)c2c(c3c4cccc(O)c4n([C@@H]4O[C@H](CO)[C@@H](O)[C@H](O)[C@H]4O)c3c3[nH]c4c(O)cccc4c23)C1=O` [Example 22]: 110 nM.
In the case of `O=C1c2c(c3c4cccc(O)c4n([C@@H]4O[C@H](CO)[C@@H](O)[C@H](O)[C@H]4O)c3c3[nH]c4c(O)cccc4c23)C(=O)N1NCc1cccc(O)c1` [Example 23], the IC50 is less than 25 nM.
On the same count and under the same terms, the same measure for `N#CCCNN1C(=O)c2c(c3c4cccc(O)c4n([C@@H]4O[C@H](CO)[C@@H](O)[C@H](O)[C@H]4O)c3c3[nH]c4c(O)cccc4c23)C1=O` [Example 24]: 1 nM.
On the same count and under the same terms, under `O=C1c2c(c3c4cccc(O)c4n([C@@H]4O[C@H](CO)[C@@H](O)[C@H](O)[C@H]4O)c3c3[nH]c4c(O)cccc4c23)C(=O)N1NC1=NCCN1` [Example 25] stands 48 nM; under `CC(C)(C)OC(=O)NN1C(=O)c2c(c3c4cccc(O)c4n([C@@H]4O[C@H](CO)[C@@H](O)[C@H](O)[C@H]4O)c3c3[nH]c4c(O)cccc4c23)C1=O` [Example 27], 27 nM.
Still for that read-out and setting: the same measure for `C=CCNN1C(=O)c2c(c3c4cccc(O)c4n([C@@H]4O[C@H](CO)[C@@H](O)[C@H](O)[C@H]4O)c3c3[nH]c4c(O)cccc4c23)C1=O` [Example 28]: less than 29 nM; for `O=C1c2c(c3c4cccc(O)c4n([C@@H]4O[C@H](CO)[C@@H](O)[C@H](O)[C@H]4O)c3c3[nH]c4c(O)cccc4c23)C(=O)N1N(Cc1ccccc1)Cc1ccccc1` [Example 29]: 5 nM.
For the compound `COC(=O)NN1C(=O)c2c(c3c4cccc(O)c4n([C@@H]4O[C@H](CO)[C@@H](O)[C@H](O)[C@H]4O)c3c3[nH]c4c(O)cccc4c23)C1=O` [Example 30], the IC50 was found to be 3 nM.
With `CC1(C)OC[C@@H]([C@@H](O)C(=O)NN2C(=O)c3c(c4c5cccc(O)c5n([C@@H]5O[C@H](CO)[C@@H](O)[C@H](O)[C@H]5O)c4c4[nH]c5c(O)cccc5c34)C2=O)O1` [Example 31], the IC50 came to 11 nM.
Same read-out and setting: under `O=C(Nc1ccccc1)NN1C(=O)c2c(c3c4cccc(O)c4n([C@@H]4O[C@H](CO)[C@@H](O)[C@H](O)[C@H]4O)c3c3[nH]c4c(O)cccc4c23)C1=O` [Example 33] stands 110 nM.
Still for that read-out and setting: the same measure for `O=C(NN1C(=O)c2c(c3c4cccc(O)c4n([C@@H]4O[C@H](CO)[C@@H](O)[C@H](O)[C@H]4O)c3c3[nH]c4c(O)cccc4c23)C1=O)c1ccccc1` [Example 34]: 19 nM.
With `O=C(NN1C(=O)c2c(c3c4cccc(O)c4n([C@@H]4O[C@H](CO)[C@@H](O)[C@H](O)[C@H]4O)c3c3[nH]c4c(O)cccc4c23)C1=O)c1ccccn1` [Example 35], the IC50 is 170 nM.
For `O=C1c2c(c3c4cccc(O)c4n([C@@H]4O[C@H](CO)[C@@H](O)[C@H](O)[C@H]4O)c3c3[nH]c4c(O)cccc4c23)C(=O)N1NCCO` [Example 36], the IC50 amounted to 2 nM.
For `O=C1c2c(c3c4cccc(O)c4n([C@@H]4O[C@H](CO)[C@@H](O)[C@H](O)[C@H]4O)c3c3[nH]c4c(O)cccc4c23)C(=O)N1N1CCCC1` [Example 37], the IC50 worked out at 95 nM.

Another test concerns mouse tumor (P388). The experiment in a line: Therapeutic effect against mouse tumor (P388). It is filed as in vivo. Particulars: P388, 10⁶ cancer cells inoculated i.p.; dose 1 mg/kg/injection i.p. once a day from 1st to 10th day. An excerpt: (1) Therapeutic effect against mouse tumor (P388)
On to `O=C(O)C=NN1C(=O)c2c(c3c4cccc(O)c4n([C@@H]4O[C@H](CO)[C@@H](O)[C@H](O)[C@H]4O)c3c3[nH]c4c(O)cccc4c23)C1=O` [Example 2], for which the “MST (mean survival number of days)” value is 15.8 ± 0.84 days and the “T/C (%) (MST of treatment group/MST of control x 100)” value is on record as 128%.
For `O=CNN1C(=O)c2c(c3c4cccc(O)c4n([C@@H]4O[C@H](CO)[C@@H](O)[C@H](O)[C@H]4O)c3c3[nH]c4c(O)cccc4c23)C1=O` [Example 5] the same measures were 16.8 ± 0.84 days and 137%.

Still in this test, the particulars now being: P388, 10⁶ cancer cells inoculated i.p.; dose 3 mg/kg/injection i.p. once a day from 1st to 10th day.
Take `O=C(O)C=NN1C(=O)c2c(c3c4cccc(O)c4n([C@@H]4O[C@H](CO)[C@@H](O)[C@H](O)[C@H]4O)c3c3[nH]c4c(O)cccc4c23)C1=O` [Example 2]: the “MST (mean survival number of days)” value stood at 17.8 ± 1.92 days and the “T/C (%) (MST of treatment group/MST of control x 100)” value was 145%.
Consider `O=CNN1C(=O)c2c(c3c4cccc(O)c4n([C@@H]4O[C@H](CO)[C@@H](O)[C@H](O)[C@H]4O)c3c3[nH]c4c(O)cccc4c23)C1=O` [Example 5], for which the “MST (mean survival number of days)” value amounted to 17.8 ± 1.92 days and the “T/C (%) (MST of treatment group/MST of control x 100)” value came to 145%.

Staying with this test, now noted: P388, 10⁶ cancer cells inoculated i.p.; dose 10 mg/kg/injection i.p. once a day from 1st to 10th day.
With `O=C(O)C=NN1C(=O)c2c(c3c4cccc(O)c4n([C@@H]4O[C@H](CO)[C@@H](O)[C@H](O)[C@H]4O)c3c3[nH]c4c(O)cccc4c23)C1=O` [Example 2], the “MST (mean survival number of days)” value is more than 26.4 ± 18.82 days and the “T/C (%) (MST of treatment group/MST of control x 100)” value is listed as more than 245%.
For `O=CNN1C(=O)c2c(c3c4cccc(O)c4n([C@@H]4O[C@H](CO)[C@@H](O)[C@H](O)[C@H]4O)c3c3[nH]c4c(O)cccc4c23)C1=O` [Example 5] the same measures were more than 26.2 ± 10.18 days and more than 213%.

The same test, now with this note: P388, 10⁶ cancer cells inoculated i.p.; dose 30 mg/kg/injection i.p. once a day from 1st to 10th day.
As for `O=C(O)C=NN1C(=O)c2c(c3c4cccc(O)c4n([C@@H]4O[C@H](CO)[C@@H](O)[C@H](O)[C@H]4O)c3c3[nH]c4c(O)cccc4c23)C1=O` [Example 2], the “MST (mean survival number of days)” value is more than 42.2 ± 24.38 days and the “T/C (%) (MST of treatment group/MST of control x 100)” value is more than 343%.
As to `O=CNN1C(=O)c2c(c3c4cccc(O)c4n([C@@H]4O[C@H](CO)[C@@H](O)[C@H](O)[C@H]4O)c3c3[nH]c4c(O)cccc4c23)C1=O` [Example 5], the “MST (mean survival number of days)” value was more than 23.4 ± 9.74 days and the “T/C (%) (MST of treatment group/MST of control x 100)” value is listed as more than 190%.

The test is the same for the next values; noted with them: P388, 10⁶ cancer cells inoculated i.p.; dose 100 mg/kg/injection i.p. once a day from 1st to 10th day.
Regarding `O=C(O)C=NN1C(=O)c2c(c3c4cccc(O)c4n([C@@H]4O[C@H](CO)[C@@H](O)[C@H](O)[C@H]4O)c3c3[nH]c4c(O)cccc4c23)C1=O` [Example 2], the “MST (mean survival number of days)” value was more than 47.2 ± 18.90 days and the “T/C (%) (MST of treatment group/MST of control x 100)” value is recorded as more than 384%.
For `O=CNN1C(=O)c2c(c3c4cccc(O)c4n([C@@H]4O[C@H](CO)[C@@H](O)[C@H](O)[C@H]4O)c3c3[nH]c4c(O)cccc4c23)C1=O` [Example 5], the “MST (mean survival number of days)” value is more than 36.4 ± 8.05 days and the “T/C (%) (MST of treatment group/MST of control x 100)” value is reported as more than 296%.
